According to patent US20150031128A1, “CULTURE MEDIUM FOR EUKARYOTIC CELLS” (Friesland Brands B.V., priority 2012, published 2015):
Peptide text beside a SMILES is read from it.

Legend:
[1] = test system: IgG expressing CHO cell line (CHO-2: ATCC CRL 11397, producing IgG4); assay: Specific IgG production of IgG expressing CHO cells in supplemented chemically defined medium (sandwich ELISA / AUC); assay type: cell-based, Chinese hamster; conditions: ratio of cumulative IgG production (mg/ml) and AUC at day 11
Procedure: (§1) The cell culture assay was carried out in commercially available IS CHO-CD medium (Irvine Scientific, Cat. No. 91119). To this media, L-Glutamine (2 mM), pluronic acid, hypoxanthine (100 μM) and thymidine (15 μM) were added. Penicillin and streptomycin were added to prevent any bacterial growth during the growth assay. The media was supplemented with sodium-L-lactate, methyl-L-3-phenyl lactate, mucic acid, D-chiro-inositol, ferulic acid, syringic acid, adenine (A2786) and trigonelline, all purchased from Sigma Aldrich, Germany, in varying concentrations (see Table 2). The supplemented medium was mixed with a vortex mixture, filtered using a 0.22 μm filter and subsequently used in a growth assay.
(§2) An IgG expressing CHO cell line was used (CHO-2: ATCC CRL 11397, producing IgG4). The cell lines were grown in the adherent conditions for a few passages and once confluent, they were transferred to animal-free conditions in the supplemented media described in Example 2.
(§3) To measure growth and production curves, Chinese hamster ovary (CHO) cells were grown in suspension culture in baffled flasks. 20×10^6 cells were transferred in 25 ml media to the baffled flasks. Chemically defined media with and without added cell culture medium components were tested. No fresh media was added during the growth assay. Cells were counted using the CEDEX HiRes cell counter (Innovatis, Germany). The cell counts were used to calculate the area under the growth curve and represented as dimensionless area under curve (AUC) values as described in detail in Ling, C. X, Huang, J. and Zhang, H. (2003), International joint conferences on artificial intelligence, pp. 329-341. The supernatant samples were taken every alternate days for the IgG production measurements. IgG production was measured using sandwich ELISA method. The specific IgG production was calculated by taking the ratio of cumulative IgG production (in mg/ml) and AUC measured at day 11 of the growth assay. The cells were visually inspected using a phase contrast microscope (Zeiss Axiovert 25, 400× magnification). […] Only single cells were observed and no aggregation of cells was seen. The cell shape was also positively affected. […] This was in contrast with the observation that a lot of cell aggregates were present in CHO cell cultures grown in chemically defined medium without cell culture medium components.
(§4) Table 2A and 2B. Specific IgG production and cell growth of CHO cells in chemically defined cell culture medium (see Example 5 for details) with added cell culture medium components of the invention in varying concentrations. Production and growth data in chemically defined cell culture medium without added alpha-hydroxy acid derivatives, as well as in chemically defined cell culture medium supplemented with soy protein hydrolysate (0.4% w/v) and with fetal calf serum (Gibco-Invitrogen; 5% v/v) are provided for comparison.

[2] = test system: antibody production in cell culture; assay: Correlation (linear regression, SLOPE) of antibody production with relative concentration of components in plant protein hydrolysates; assay type: cell-based; conditions: linear regression over plant protein hydrolysates; higher positive slope = higher importance
Procedure: Commercial plant protein hydrolysates like SE50MAF-UF, WGE80M-UF, CNE80M-UF, PCE80B obtained from FrieslandCampina Domo, USA were analysed by Liquid chromatography/Mass Spectrometry (LC/MS, LC/MS2) using a Waters Acquity UPLC and a Thermo-Finnigan LTQ mass spectrometer, which consists of an electrospray ionization (ESI) source and linear ion-trap (LIT) mass analyzer. The sample extract was split into two aliquots, dried, then reconstituted in acidic or basic LC-compatible solvents. One aliquot was analyzed using acidic positive ion optimized conditions and the other using basic negative ion optimized conditions in two independent injections using separate dedicated columns. […] Using the SLOPE function of Microsoft Excel 2003, the correlation between antibody production and relative concentration of the components was calculated, the results of which are presented in Table 1 below. The higher the positive slope, the higher the importance of a biochemical component in the cell culture. p-values, also calculated using MS Excel's correlation regression function, represent the significance of the values, with the lower the p-value (all between 0 and 1), the more significant the measured value.

[3] = test system: IgG expressing CHO cell line (CHO-2: ATCC CRL 11397, producing IgG4); assay: Cell growth (area under growth curve) of CHO cells in supplemented chemically defined medium; assay type: cell-based, Chinese hamster; conditions: dimensionless AUC
Procedure: as §1, §2, §3, §4

[4] = component added at 1 × 10^−1 % w/v
[5] = component added at 1 × 10^−2 % w/v
[6] = component added at 1 × 10^−3 % w/v

Row | SMILES | Specific IgG production after 11 days [1, 4] | Specific IgG production after 11 days [1, 5] | SLOPE (correlation of antibody production and relative concentration of cell culture medium component) [2] | Cell growth (area under curve) after 14 days [3, 4] | Specific IgG production after 11 days [1, 6] | Cell growth (area under curve) after 14 days [3, 5] | Cell growth (area under curve) after 14 days [3, 6]
1 | C[n+]1cccc(C(=O)[O-])c1 [trigonelline, 1-methylpyridinium-3-carboxylate] | 83.65 | 75.68 |  |  |  |  | 
2 | CC(C)[C@H](N)C(=O)N[C@@H](CCC(=O)O)C(=O)O [valinylglutamate] (H-Val-Glu-OH) |  |  | 2064.16 |  |  |  | 
3 | C[C@H](O)C(=O)[O-].[Na+] [Sodium-L-lactate, sodium-L-lactate] | 93.77 |  |  | 61.83 |  |  | 
4 | OC1C(O)C(O)C(O)C(O)C1O [D-Chiro-inositol, D-chiro-inositol] | 60.22 | 93.05 |  | 64.24 | 102.40 | 51.22 | 50.18
5 | COc1cc(C(=O)O)cc(OC)c1O [Syringic Acid, 4-hydroxy-3,5-dimethoxybenzoic acid] | 96.8 | 93.2 |  | 60.0 | 77.3 | 58.8 | 53.4
6 | Nc1ncnc2nc[nH]c12 [adenine] |  | 100.8 |  |  | 82.4 |  | 
7 | O=C(O)CC[C@@H]1NC(=O)CNC1=O [cyclo(Gly-Glu)] |  |  | 1584.22 |  |  |  | 
8 | COc1cc(/C=C/C(=O)O)ccc1O [ferulic acid, (E)-3-(4-hydroxy-3-methoxy-phenyl)prop-2-enoic acid] | 60.5 | 86.3 |  | 66.3 | 124.2 | 51.3 | 49.7
